From patent US7875284B2, “Methods of manufacturing and modifying taxane coatings for implantable medical devices” (Cook Incorporated, priority 2006, dated 2011)

What was measured:
[1] = Elution of paclitaxel coatings in aqueous Heptakis-(2,6-di-O-methyl)-β-cyclodextrin (HCD); format: physicochemical; conditions: 0.5% w/w aqueous HCD, 25° C.; within about 1 hour
Excerpt: A preferred first elution medium is an aqueous solution comprising 0.1% to about 10% of a cyclodextrin. In one aspect, an elution profile may be obtained by contacting a coated medical device comprising a taxane therapeutic agent with an elution medium comprising a cyclodextrin. A cyclodextrin is a cyclic oligosaccharide formed from covalently-linked glucopyranose rings defining an internal cavity. The diameter of the internal axial cavity of cyclodextrins increases with the number of glucopyranose units in the ring. The size of the glucopyranose ring can be selected to provide an axial cavity selected to match the molecular dimensions of a taxane therapeutic agent. The cyclodextrin is preferably a modified beta-cyclodextrin, such as Heptakis-(2,6-di-O-methyl)-β-cyclodextrin (HCD). Suitable cyclodedtrin molecules include other β-cyclodextrin molecules, as well as γ-cyclodextrin structures.
Preferably, the cyclodextrin elution medium is formulated to provide distinguishable elution rates for different coating configurations, providing different elution profiles for different solid forms of a taxane therapeutic agent in the coating. […] For example, the elution medium may contact a medical device coating in a continuous flow configuration, or in a batch testing configuration.
Taxane therapeutic agents typically have different elution profiles in different elution media.

[2] = for first order rate constants k1, k2 used for the dissolution formula: restated
Excerpt: The rate of dissolution of the taxane therapeutic agent can vary based on the elution medium being used and the solid form of the taxane therapeutic agent before dissolution. An elution profile can be obtained by any suitable method that allows for measurement of the release of the taxane therapeutic agent from the coating in a manner that can be measured with a desired level of accuracy and precision. In one embodiment, the elution profile of the release of a taxane therapeutic agent is obtained by contacting the medical device with a suitable elution medium. The elution medium can be formulated to simulate conditions present at a particular point of treatment within a body vessel. For example, an elution medium comprising porcine serum can be used to simulate implantation within a blood vessel. The release of taxane therapeutic agent from the medical device can be measured by any suitable spectrographic method, such as measurement of a UV absorption spectrum of the test fluid after contacting the medical device. Typically, the intensity of absorption at characteristic UV absorption peak, such as about 227 nm, can be correlated to the presence and amount of a taxane therapeutic agent in a sample. The amount of taxane therapeutic agent on the medical device can be determined by contacting the medical device with a suitable elution medium and detecting the amount of taxane therapeutic agent released from the medical device into the elution medium.
Preferably, the coated medical device can be contacted with a modified porcine serum elution medium at a constant flow rate of 16 mL/min for a desired period of time (e.g., 6-24 hours) sufficient to elute the aPTX present on the stent. The percentage of the taxane therapeutic agent dissolved can be measured as a function of time by monitoring the optical density of the first elution medium at 227 nm after contacting the coated stent, as described above. The modified porcine serum elution medium can be prepared by adding 0.104 mL of a 6.0 g/L Heparin solution to porcine serum at 37° C. and adjusting the pH to 5.6+/−0.3 using a 20% v/v aqueous solution of acetic acid. The elution rate profile of the taxane therapeutic agent can be measured for any desired period, and correlated to the amount of aPTX in the coating. Subsequently, the coated medical device is contacted with a second elution medium comprising 0.3% sodium dodecyl sulfate (SDS) at 25° C. a constant flow rate of 16 mL/min for a suitable time period to elute the dPTX present in the coating. The elution rate profile of the taxane therapeutic agent can be measured for any desired period, and correlated to the amount of aPTX (e.g., by elution in porcine serum) and dPTX (e.g., by subsequent elution in SDS) in the coating.

[3] = Elution of paclitaxel coatings in 0.3% sodium dodecyl sulfate (SDS); format: physicochemical; conditions: 0.3% SDS, 25° C.; FIGS. 7A-7B
Excerpt: Taxane therapeutic agents can have different elution profiles in different elution media. Another suitable elution medium for taxane therapeutic agent is sodium dodecyl sulfate (SDS).

Compound: CC(=O)O[C@H]1C(=O)[C@@]2(C)[C@H]([C@H](OC(=O)c3ccccc3)[C@]3(O)C[C@H](OC(=O)[C@H](O)[C@@H](NC(=O)c4ccccc4)c4ccccc4)C(C)=C1C3(C)C)[C@]1(OC(C)=O)CO[C@@H]1C[C@@H]2O [dihydrate paclitaxel, paclitaxel]
- percentage of paclitaxel dissolved/released [1]: less than 20%
- first order rate constant of elution ([2]; porcine serum (25° C.) as printed): about 0.0003 min^−1
- percentage of the coating eluted ([2]; porcine serum, 37° C., single-layer coating on vascular stent, after about 24 hours): less than 40%
- first order rate constants k1, k2 used for the dissolution formula ([2]; porcine serum): 0.0003 min⁻¹

Compound: CC(=O)O[C@H]1C(=O)[C@@]2(C)[C@H]([C@H](OC(=O)c3ccccc3)[C@]3(O)C[C@H](OC(=O)[C@H](O)[C@@H](NC(=O)c4ccccc4)c4ccccc4)C(C)=C1C3(C)C)[C@]1(OC(C)=O)CO[C@@H]1C[C@@H]2O [amorphous paclitaxel, paclitaxel]
- percentage of paclitaxel dissolved/released [1]: about 80%
- time within which substantially all of the paclitaxel eluted ([2]; continuous flow of porcine serum, FIG. 14, Example 6): less than 5 hours
- half life of elution ([2]; pig, serum): about 30 minutes
- percentage of the coating dissolved ([2]; porcine serum, 37° C., single-layer coating on vascular stent, within about 6.5 hours (400 minutes)): 100%
- first order rate constants k1, k2 used for the dissolution formula ([2]; porcine serum): 0.0244 min⁻¹
- rate of elution compared with dihydrate paclitaxel [3]: more rapid
